Results taken from patent US6352980B1, “Estrenes for inducting hypothalamic effects” (Pherin Pharmaceuticals, Inc., priority 1991, dated 2002).
Entries after “also recorded” stand apart in the source; their conditions may differ.

How the values were obtained:
[1] = test system: VNO; experiment: Electro-vomeronasogram (EVG) (Example 57); type: in vivo, human; details: male subjects (ages 20 to 38); 100 fmoles; 1 second pulses; FIG. 6A
Description: The following electrophysiological studies were performed in 60 clinically normal human volunteers of both sexes (30 male and 30 female) whose ages ranged from 20 to 45 years. No anesthetics were used, and female subjects were excluded if pregnant.
The stimulation and recording system consists of a “multifunctional miniprobe” described elsewhere (Monti-Bloch, L. and Grosser, B. l. (1991) “Effect of putative pheromones on the electrical activity of the human vomeronasal organ and olfactory epithelium,” J. Steroid Biochem. Molec. Biol. 39:573-582.). The recording electrode is a 0.3 mm silver ball attached to a small (0.1 mm) silver wire insulated with Teflon© the surface of the electrode is first treated to produce a silver chloride interface, and is then covered with gelatin It is positioned within a small caliber Teflon© catheter (dia=5 mm) such that the tip of the electrode protrudes approximately 2 mm. The Teflon© catheter is 10 cm in length and constitutes the terminal extension for a multichannel delivery system which delivers a continuous air stream carrying discreet pulses of chemosensory stimuli. The air stream first passes into a small chamber and is bubbled through a solution containing either a vomeropherin or an olfactant in a diluent or the diluent alone. A solenoid is used to rapidly redirect the air stream from the chamber to a route which bypasses the chamber. This creates a discreet pulse of stimulant in the air stream. A second, outer Teflon® tube with a diameter of 2 mm surrounds the catheter-electrode assemblage, and its central end is connected to an aspirator that provides continuous suction of 3 ml/s. This concentric arrangement of the outer suction tube allows the emitted chemosensory stimuli to be localized to an area we call a “minifield” (approx. dia=1 mm), and it avoids diffusion of substances either to the area outside the intended stimulation site or into the respiratory system. The entire stimulating and recording assemblage may be positioned either on the neurosensory epithelium within the VNO, or on the surface of the olfactory or respiratory epithelium.
Electro-vomeronasogram (EVG): Recordings are carried out in a quiet room with the subject supine; the multi-functional miniprobe is initially stabilized within the nasal cavity using a nasal retractor placed in the vestibule. Reference and ground electrodes consist of silver discs (8 mm), both of which are positioned on the glabella.
The entrance to the VNO, or vomeronasal pit, is identified by first dilating the nasal aperture and vestibule. A 6× magnifying binocular loupe with halogen illumination is then used to introduce the tip of the Teflon® catheter and recording electrode assemblage into the VNO opening where it is stabilized at an approximate depth of 1 mm within the vomeronasal passage. Optimal placement of the recording electrode is signaled after testing for an adequate depolarization in response to a test substance.
Electrical signals from the recording electrode are fed to a DC amplifier after which they are digitized, computer monitored, and stored. The peak-to-peak amplitude of the signals is measured, and the area under the depolarization wave is integrated, while continuously monitoring the signal both on the computer screen and on a digital oscilloscope. Artifacts produced by respiratory movements are deleted by training the subjects to practice mouth breathing with velopharyngeal closure.
Chemosensory Stimulants: Olfactory test substances are cineole, and 1-carvone; vomeropherins are A, B, C, E and F. (Vomeropherins were supplied by Pherin Corporation, Menlo Park, Calif.), Samples of vomeropherins In. concentration of 25-800 fmoles are delivered in the continuous air stream for durations from 300 milliseconds to 1 second. Usually, intervals of 3 to 5 minutes separated each series of short test pulses. […]

[2] = test system: VNO; experiment: Electrodermal activity (EDA) on vomeropherin stimulation of the VNO; type: in vivo, human; details: male subjects, n=30; p<0.01; FIG. 6C
Description: (§1) Cortical evoked activity was induced by VNO stimulation with vomeropherins, and olfactory stimulation with odorants delivered in 300 ms air pulses. It was recorded using standard electroencephalographic (EEG) electrodes placed at positions Cz-A1 and Tz-A1 of the international […] system; the ground electrode was placed on the mastoid process. Electrodermal activity (EDA) was recorded using standard 8 mm silver electrodes in contact with palmar skin of the medial and ring fingers, respeCtively, through a conductive gel interface. Skin temperature (ST) was recorded by a small (1.0 mm) thermistor probe placed in the right ear lobe. Peripheral arterial pulse (PAP) was monitored with a plethysmograph attached to the tip of the index finger. Respiratory frequency (RF) was measured with an adjustable strain gauge placed around the lower thorax. All electrical signals were DC amplified, digitized (MP-100, Biopac Systems) and continuously monitored utilizing a computer.
(§2) Statistical Analysis: EVGs or EOGS, peak-to-peak changes and frequency changes of other parameters were measured and statistically analyzed. The significance of the results was determined by either using paired t-tests or analysis of variance (ANOVA).
Reflex Effects of Vomeropherins: Studies were conducted to determine the central nervous system (CNS) reflex responses to vomeropherin stimulation of the VNO. The sexually dimorphic local responses induced by vomeropherins (FIGS. 6A and B) were mirrored in the autonomic response of male & female subjects. […] In female subjects.

[3] = test system: human vomeronasal organ (VNO); experiment: Local electrical potential of the VNO on localized gaseous stimulation (Example 52); type: in vivo; details: for VNO response, males versus females (sexual dimorphism): FIG. 2B; for VNO response: male subjects, about 25 pg to the nasal cavity, response measured in mV×s, FIG. 2A
Description: (§3) A non-invasive method has been employed to record local electrical potentials from the human vomeronasal organ (VNO) and from the olfactory epithelium (OE). Localized gaseous stimulation was applied to both nasal structures at different instances using specially designed catheter/electrodes connected to a multichannel drug delivery system.
(§4) The study was performed on ten clinically normal (screened) volunteers—2 males and 8 females, ranging in age from 18 to 85 years. The studies were conducted without general or local anesthetics.
(§5) The catheter/electrodes were designed to deliver a localized stimulus and simultaneously record the response. In the case of VNO recording, the right nasal fosa of the subject was explored using a nasoscope (nasal specula) and the vomeronasal opening was localized close to the intersection of the anterior edge of the vomer and the nasal floor. The catheter/electrode was gently driven through the VNO-opening and the electrode tip placed in the organ's lumen at 1 to 3 mm from the opening. The nasoscope was then removed. In the case of the OE, recording the procedure was similar except the positioning of the catheter/electrode was gently placed deep in the lateral part of the medial nasal duct, reaching the olfactory mucosa.
Localized gaseous stimulation was done through the catheter/electrode. A constant stream of clean, nonodorous, humidified air at room temperature was continuously passed through a channel of the stimulating system. The stimulating ligand substances were diluted in propylene glycol, mixed with the humidified air, and puffed for from 1 to 2 seconds through the catheter/electrode. It is estimated that this administration provides about 25 pg of steroid-ligand to the nasal cavity.
(§6) The response is measured in millivolt-seconds (mV×s).

[4] = test system: VNO; experiment: Skin temperature (ST) on vomeropherin stimulation of the VNO; type: in vivo, human; details: 30 male subjects; p<0.01; FIG. 6G
Description: as §1, §2
In female subjects vomeropherins produced changes in EDA and ST with a greater standard deviation than in males.

[5] = test system: VNO; experiment: Cortical activity (EEG) on VNO stimulation with vomeropherins; type: in vivo, human; details: males; 200 fmoles; air pulses 300 ms to 1 sec; FIG. 6E
Description: as §1, §2
[…] […] Synchronization of the EEG was sustained for 1.5 to 2.7 minutes after application of a single pulse of active substance.

[6] = test system: olfactory epithelium (OE); experiment: Local electrical potential of the olfactory epithelium on localized gaseous stimulation (Example 52); type: in vivo, human; details: both males and females; compared to clove; FIG. 2C
Description: as §3, §4, §5
Localized gaseous stimulation was done through the catheter/electrode. […]
as §6

[7] = test system: VNO; experiment: Comparison of change in receptor potential induced by two Estrene steroids (Example 55); type: in vivo, human; details: 60 picograms; a subject; FIG. 5
Description: 60 picograms of each steroid and of a propylene glycol control were administered to a subject as described in Example 21.

[8] = test system: VNO; details: 2% lidocaine applied to the respiratory epithelium of the nasal septum; cited from earlier work

Structure (SMILES)	EVG average response (mean) [1] [mV]	skin resistance (electrodermal activity, EDA) [2]	VNO response, males versus females (sexual dimorphism) [3]	VNO response [3]	skin temperature (ST) [4]	alpha cortical activity [5]	OE response [6]	change in receptor potential [7]	effect of local anesthetic on the EVG [8]
C[C@@]12C=CC[C@H]1[C@@H]1CCc3cc(O)ccc3[C@H]1CC2 [C, 1,3,5(10),16-Estratetraen-3-ol]	6.4	decreased skin resistance	approximately four times as strong in males as it is in females	significantly stronger VNO response in males than do the other compounds tested	significant increase in skin temperature	significantly increased alpha cortical activity	low compared to a strong odorant such as clove		
COc1ccc2c(c1)CC[C@@H]1[C@@H]2CC[C@]2(C)C=CC[C@@H]12 [D, 3-Methoxy-Estra-1,3,5(10)16-tetraene]	15.1				significant temperature decrease	significantly increased alpha cortical activity; also recorded: strongest effect		greater change in receptor potential than did 1,3,5(10),16-Estratetraen-3-yl acetate	
CCN(CC)CC(=O)Nc1c(C)cccc1C [lidocaine]									neither blocks nor diminishes the EVG
C[C@]12CC[C@@H]3c4ccc(O)cc4CC[C@H]3[C@@H]1C[C@@H](O)[C@@H]2O [1,3,5(10)-Estratrien-3,16α,17β-triol, reference compound]			approximately four times as strong in males as it is in females	strong VNO response			low compared to a strong odorant such as clove		
